Measured values taken from US6015823A, “4-Cyclohexylphenyl-oxazolines and their use for controlling animal pests” (Bayer Aktiengesellschaft, priority 1996, dated 2000).
Read-outs that look alike come from different tables or passages of the source.

Key:
[1] = system: common spider mite (Tetranychus urticae); assay: Tetranychus test (OP resistant/dip treatment); type: in vivo; conditions: for mortality at 0.0001 %: Tetranychus urticae, 312 h, read-out: destruction in %
Procedure: Tetranychus test (OP resistant/dip treatment)
Solvent: 3 parts by weight of dimethylformamide
(§1) Emulsifier: 1 part by weight of alkylaryl polyglycol ether
To produce a suitable preparation of active compound, 1 part by weight of active compound is mixed with the stated amount of solvent and the stated amount of emulsifier, and the concentrate is diluted with emulsifier-containing water to the desired concentrations.
Bean plants (Phaseolus vulgaris) which are heavily infested by all stages of the common spider mite (Tetranychus urticae) are dipped into the active compound preparation of the desired concentration.
After the desired period of time, the activity in % is determined. 100% means that all the spider mites have been killed; 0% means that none of the spider mites have been killed.

[2] = system: peach aphids (Myzus persicae); assay: Myzus test; type: in vivo; conditions: active compound concentration 0.1%, after 6 days; for mortality at 0.1 %: Myzus persicae, 144 h, read-out: destruction in %
Procedure: (§2) Solvent: 7 parts by weight of dimethylformamide
as §1
(§3) To produce a suitable preparation of active compound, 1 part by weight of active compound is mixed with the stated amount of solvent and the stated amount of emulsifier, and the concentrate is diluted with water to the desired concentration.
Seedlings of the broad bean (Vicia faba) which are infested with peach aphids (Myzus persicae) are dipped into the active compound preparation of the desired concentration and placed into a plastic box.
After the desired period of time, the destruction in % is determined. 100% means that all the aphids have been killed; 0% means that none of the aphids have been killed.

[3] = logp: n-octanol/water partition coefficient by reversed phase HPLC; type: physicochemical; conditions: h2o/ch3cn, read-out: logp (logarithm to base ten of the n-octanol/water partition coefficient)
Source text: *) logp: Logarithm to base ten of the n-octanol/water partition coefficient, determined by reversed phase HPLC analysis using H2 O/CH3 CN.
*^) logp: Logarithm to base ten of the noctanol/water partition
coefficient, determined by reversed phase HPLC analysis using H2

[4] = system: green rice leaf hopper (Nephotettix cincticeps); assay: Nephotettix test; type: in vivo; conditions: active compound concentration 0.1%, after 6 days; for mortality at 0.1 %: Nephotettix cincticeps, 144 h, read-out: destruction in %
Procedure: as §2, §1, §3
Rice seedlings (Oryza sativa) are treated by being dipped into the active compound preparation of the desired concentration and are infested with the green rice leaf hopper (Nephotettix cincticeps), while the seedlings are still moist.
After the desired period of time, the destruction in % is determined. 100% means that all the leaf hoppers have been killed; 0% means that none of the leaf hoppers have been killed.

[5] = system: caterpillars of the owlet moth (Spodoptera frugiperda); assay: Spodoptera frugiperda test; type: in vivo; conditions: active compound concentration 0.1%, after 7 days; for mortality at 0.1 %: Spodoptera frugiperda, 168 h, read-out: destruction in %
Procedure: Spodoptera frugiperda test
as §2, §1
(§4) To produce a suitable preparation of active compound, I part by weight of active compound is mixed with the stated amount of solvent and the stated amount of emulsifier, and the concentrate is diluted with water to the desired concentration.
Cabbage leaves (Brassica oleracea) are treated by being dipped into the active compound preparation of the desired concentration and are infested with caterpillars of the owlet moth (Spodoptera frugiperda), while the leaves are still moist.
After the desired period of time, the destruction in % is determined. 100% means that all the caterpillars have been killed; 0% means that none of the caterpillars have been killed.

[6] = system: mustard beetle larvae (Phaedon cochleariae); assay: Phaedon larvae test; type: in vivo; conditions: active compound concentration 0.01%, after 7 days; for mortality at 0.01 %: Phaedon cochleariae, 168 h, read-out: destruction in %
Procedure: as §2, §1, §4
Cabbage leaves (Brassica oleracea) are treated by being dipped into the active compound preparation of the desired concentration and are infested with mustard beetle larvae (Phaedon cochleariae), while the leaves are still moist.
After the desired period of time, the destruction in % is determined. 100% means that all the beetle larvae have been killed; 0% means that none of the beetle larvae have been killed.

[7] = system: All larval stages of Lucilia cuprina (OP resistant); assay: Fly larvae test/development-inhibitory action; type: in vivo; conditions: active compound concentration 1000 ppm, read-out: activity (larvicidal / development-inhibitory)
Procedure: Fly larvae test/development-inhibitory action
Test animals: All larval stages of Lucilia cuprina (OP resistant) [Pupae and adults (without contact with the active compound)]
Solvent: 35 parts by weight of ethylene glycol monomethyl ether 35 parts by weight of nonylphenol polyglycol ether
To prepare a suitable formulation, 3 parts by weight of active compound are mixed with 7 parts of the abovementioned solvent-emulsifier mixture, and the resulting emulsion concentrate is diluted with water to the concentration desired in each case.
For each concentration, 30 to 50 larvae are transferred to horse meat (1 cm^3) located in glass tubes, and 500 μl of the test dilution are pipetted onto the meat. The glass tubes are placed into plastic beakers whose bottom is covered with sea sand and kept in a controlled-environmentcabinet (26° C.±1.5° C., 70% relative humidity±10%). Larvicidal activity is checked after 24 hours and 48 hours. After the larvae have left (about 72 hours), the glass tubes are removed and perforated plastic lids are placed on the beakers. After 11/2 times the development period (hatching of the control flies), the hatched flies and the pupae/puparia are counted.
The criterion for the activity is the death of the treated larvae after 48 hours (larvicidal effect), or inhibition of adults hatching from the pupae or inhibition of pupation. […]

[8] = A isomer (possible geometric isomer)
[9] = B isomer (possible geometric isomer)

SMILES: Fc1cccc(F)c1C1=NC(c2ccc(C3CCC(=NOCc4ccc(Cl)cc4Cl)CC3)cc2)CO1 (centres unmarked) [Example 21]
- mortality at 0.0001 % [1]: 98%
- mortality at 0.1 % [2]: 80%
- chromatographic logP [3]: 5.92

SMILES: CC(C)Oc1ccc(-c2ccc(C3COC(c4c(F)cccc4F)=N3)cc2)cc1 (centres unmarked) [(C)]
- activity (in words) [4]: no activity

SMILES: CCCCCCCC1COC2(CCC(c3ccc(C4COC(c5c(F)cccc5F)=N4)cc3)CC2)O1 (centres unmarked) [Example 16]
- mortality at 0.0001 % [1]: 98%
- mortality at 0.1 % [2]: 90%
- chromatographic logP [3, 8]: 6.25
- chromatographic logP [3, 9]: 6.31

SMILES: CCON=C1CCC(c2ccc(C3COC(c4c(F)cccc4F)=N3)cc2)CC1 (centres unmarked) [Example 6]
- mortality at 0.0001 % [1]: 98%
- mortality at 0.1 % [5]: 100%
- mortality at 0.01 % [6]: 100%
- mortality at 0.1 % [4]: 100%
- inhibition at 1000 ppm [7]: 100%
- chromatographic logP [3]: 4

SMILES: CC1OC2(CCC(c3ccc(C4COC(c5c(F)cccc5F)=N4)cc3)CC2)OC1C (centres unmarked) [Example 13]
- mortality at 0.0001 % [1]: 98%
- mortality at 0.01 % [6]: 100%
- mortality at 0.1 % [4]: 80%
- chromatographic logP [3, 8]: 4.23
- chromatographic logP [3, 9]: 4.31

SMILES: CCCCCCCCCC1COC2(CCC(c3ccc(C4COC(c5c(F)cccc5F)=N4)cc3)CC2)O1 (centres unmarked) [Example 17]
- mortality at 0.0001 % [1]: 98%
- mortality at 0.1 % [5]: 100%
- mortality at 0.01 % [6]: 100%
- mortality at 0.1 % [2]: 90%
- chromatographic logP [3, 8]: 7.12
- chromatographic logP [3, 9]: 7.2

SMILES: Fc1cccc(F)c1C1=NC(c2ccc(C3CCC4(CC3)OCC(c3ccc(Cl)cc3)O4)cc2)CO1 (centres unmarked) [Example 5, 2-(2,6-difluorophenyl)-4-[4-(4-p-chlorophenylethylenedioxo-cyclohexyl)-phenyl]-1,3-oxazoline]
- mortality at 0.0001 % [1]: 98%
- mortality at 0.1 % [5]: 100%
- mortality at 0.01 % [6]: 100%
- inhibition at 1000 ppm [7]: 100%
- chromatographic logP [3]: 5.37

SMILES: Oc1ccc(-c2ccc(C3COC(c4c(F)cccc4F)=N3)cc2)cc1 (centres unmarked) [(A), reference compound]
- destruction (in words) ([1]; active compound concentration 0.0001%, after 13 days): no destruction
- activity (in words) [6]: no activity
- activity (in words) [2]: no activity

SMILES: COc1ccc(-c2ccc(C3COC(c4c(F)cccc4F)=N3)cc2)cc1 (centres unmarked) [(B), reference compound]
- activity (in words) [5]: no activity
- activity (in words) [6]: no activity
- activity (in words) [4]: no activity

SMILES: CC(C)(C)C1COC2(CCC(c3ccc(C4COC(c5c(F)cccc5F)=N4)cc3)CC2)O1 (centres unmarked) [Example 15]
- mortality at 0.0001 % [1]: 98%
- mortality at 0.01 % [6]: 100%
- mortality at 0.1 % [2]: 90%
- chromatographic logP [3, 8]: 5.41
- chromatographic logP [3, 9]: 5.48

SMILES: CCCCOc1ccc(-c2ccc(C3COC(c4c(F)cccc4F)=N3)cc2)cc1 (centres unmarked) [(E)]
- activity (in words) [4]: no activity

SMILES: O=C1CCC(c2ccc(C3COC(c4c(F)cccc4F)=N3)cc2)CC1 (centres unmarked) [Example 1, 2-(2,6-difluorophenyl)-4-[4-(4-oxo-cyclohexyl)-phenyl]-1,3-oxazoline]
- mortality at 0.1 % [4]: 90%
- chromatographic logP [3]: 2.28

SMILES: CC(C)COc1ccc(-c2ccc(C3COC(c4c(F)cccc4F)=N3)cc2)cc1 (centres unmarked) [(D)]
- activity (in words) [4]: no activity

SMILES: CC(C)ON=C1CCC(c2ccc(C3COC(c4c(F)cccc4F)=N3)cc2)CC1 (centres unmarked) [Example 4]
- mortality at 0.0001 % [1]: 98%
- mortality at 0.1 % [5]: 100%
- mortality at 0.01 % [6]: 90%
- mortality at 0.1 % [2]: 100%
- chromatographic logP [3]: 4.5
